According to publication PMC12040169 (PLOS Biology, 2025):
In brackets after ≈: the same amount, converted by molar mass.

Tests used:
[1] = test system: T1, CTL2-GFP (C. trachomatis L2/434/Bu, GFP-expressing); assay: microbe, parasite or virus in culture; design: C. trachomatis growth in HeLa, dose-response, mean of bulk GFP fluorescence and imaged total inclusion area; conditions: Chlamydia trachomatis, HeLa, 28.5 h; mean of GFP and inclusion area
T1 construct: L2/434/Bu, GFP-expressing
Text: (§1) We screened a library of 36,785 small molecules displaying drug-like properties and covering a wide chemical space (Fig 1A and S2A Data). In this process, we also complemented the assay described above with an imaging-based readout (Fig 1B). After measurements of bulk GFP and resorufin fluorescence, cells were fixed, stained with the DNA dye Hoechst, and imaged at a high-content imaging platform to detect chlamydial inclusions (GFP) and host cell nuclei (Hoechst). The total area and number of inclusions in individual wells and the number of nuclei then served as additional proxies for chlamydial growth and host cell viability. […] MICs were calculated as described above.

in vitro = assay: in vitro; design: Viability of infected HeLa host cells, resazurin conversion, bulk resorufin fluorescence relative to DMSO; conditions: human, hela cells; bulk resorufin, mean of 3
[2] = test system: T1, CTL2-GFP (C. trachomatis L2/434/Bu, GFP-expressing); assay: microbe, parasite or virus in culture; design: species or system HeLa; C. trachomatis growth in HeLa, dose-response, mean of bulk GFP fluorescence and imaged total inclusion area; conditions: Chlamydia trachomatis, 28.5 h; mean of GFP and inclusion area
Text: as §1

E. coli = test system: T2, E. coli; assay: microbe, parasite or virus in culture; design: Microbial growth in liquid dilution assay, OD600 relative to DMSO control; conditions: Escherichia coli; estimated IC50; read-out: E. coli, IC50 (µM) estimate
T2 construct: DSM 301
Text: (§2) Compound effects on commensal microbes in dilution assay As our objective was to discover compounds that inhibit Chlamydia selectively but spare commensal bacteria, we further tested 15 of our top compounds (c1e–c10e and c1v–c5v) against five bacterial species, Escherichia coli, Lactobacillus reuteri, Enterococcus faecalis, Bacteroides thetaiotaomicron, and Bifidobacterium adolescentis, representing the four dominating phyla of the human gut microbiota. […] Exceptions were c3e and c5e, which at 30 µM were inhibitory to some species. […] Of note, c1e–c3e had little or no effect on the growth of an even larger set of species of gut bacteria, also including Blautia coccoides, Prevotella copri, Prevotella histicola, Bacteroides fragilis, and Dubosiella newyorkensis, when tested in radial diffusion assays, in which the bacteria were exposed to compounds for 24–48 h before measurements of growth inhibition zones (S10B Fig and S5G Data).

B. thetaiotaomicron = test system: T3, B. thetaiotaomicron; assay: microbe, parasite or virus in culture; design: Microbial growth in liquid dilution assay, OD600 relative to DMSO control; conditions: Bacteroides thetaiotaomicron; estimated IC50; read-out: B. thetaiotaomicron, IC50 (µM) estimate
T3 construct: DSM 2079
Text: as §2

L. reuteri = test system: T4, L. reuteri; assay: microbe, parasite or virus in culture; design: Microbial growth in liquid dilution assay, OD600 relative to DMSO control; conditions: Limosilactobacillus reuteri; estimated IC50; read-out: L. reuteri, IC50 (µM) estimate
T4 construct: DSM 20016
Text: as §2

E. faecalis = test system: T5, E. faecalis; assay: microbe, parasite or virus in culture; design: Microbial growth in liquid dilution assay, OD600 relative to DMSO control; conditions: Enterococcus faecalis; estimated IC50; read-out: E. faecalis, IC50 (µM) estimate
T5 construct: DSM 20478
Text: as §2

B. adolescentis = test system: T6, B. adolescentis; assay: microbe, parasite or virus in culture; design: Microbial growth in liquid dilution assay, OD600 relative to DMSO control; conditions: Bifidobacterium adolescentis; estimated IC50; read-out: B. adolescentis, IC50 (µM) estimate
T6 construct: DSM 20083
Text: as §2

SMILES	IC50 [1]	viability at 28.5 h, 0.000416667 µM (in vitro)	viability at 28.5 h, 0.00125 µM (in vitro)	viability at 28.5 h, 0.00375 µM (in vitro)	viability at 28.5 h, 0.0123333 µM (in vitro)	viability at 28.5 h, 0.037 µM (in vitro)	viability at 28.5 h, 0.111 µM (in vitro)	viability at 28.5 h, 0.333 µM (in vitro)	viability at 28.5 h, 1 µM (in vitro)	viability at 28.5 h, 3 µM (in vitro)	viability at 28.5 h, 10 µM (in vitro)	viability at 28.5 h, 30 µM (in vitro)	MIC [2]	IC50 (E. coli)	IC50 (B. thetaiotaomicron)	IC50 (L. reuteri)	IC50 (E. faecalis)	IC50 (B. adolescentis)
c1c(C2CC2)[nH]c2nc(N3CCCC3)nc(N3CCCC3)c12 [c7e]	0.443 µM	88.8%	85.2%	86.7%	86.6%	89.7%	85.9%	89.7%	87.4%	89.6%	86.6%	81.1%	0.669 µM (≈ 0.199 µg/mL)	> 30 µM	> 30 µM	> 30 µM	> 30 µM	> 30 µM
O=C(Nc1ccccc1N1CCCNCC1)c1ccc2ccccc2c1 [c29e]	2.87 µM	108%	107%	108%	107%	109%	116%	114%	115%	111%	116%	112%	5.56 µM (≈ 1.92 µg/mL)					
CCC1C(c2ccc(C)cc2)=CCC(C(=O)NCCCN(C)C)C1C (stereo not drawn) [c30e]	3.07 µM	91.8%	95.1%	91.6%	87.1%	90.5%	97.1%	87.9%	92.4%	89.5%	94.4%	55.5%	8.94 µM (≈ 3.06 µg/mL)					
Fc1cc(Br)c(CNCc2ncc[nH]2)c(N2CCCCC2)c1F [c31e]	3.12 µM	101%	103%	98.4%	96.4%	92%	100%	93.6%	97.6%	101%	97.6%	102%	5.18 µM (≈ 1.99 µg/mL)					
COc1ccc2cc3c(nc2c1)OC(=O)N(CC1CC1)C3 [c32e]	3.16 µM	102%	94.1%	91.5%	92%	89.7%	84.5%	88.5%	84.9%	86.8%	85.1%	85.4%	4.53 µM (≈ 1.29 µg/mL)					
CC(=O)Nc1ccc(-c2cccc(COC3CCN(C(=O)c4ccc(OC(C)C)cc4)CC3)c2)cc1 [c36e]	4.11 µM	89.8%	85.4%	90.5%	89%	91.7%	89.4%	94.8%	92%	95.1%	97.8%	116%	8.26 µM (≈ 4.02 µg/mL)					
CCOc1ccc2nc(NC(=N)N)nc(C)c2c1 [c37e]	4.22 µM	85.5%	89.1%	85.5%	89%	86.7%	91.1%	88.4%	87.7%	84.7%	79%	55.2%	11.4 µM (≈ 2.8 µg/mL)					
